Among the data in the SangsterLogP compilation are logD values, retold here.

The nature of the data set: method code SF-HPLC, from DOI: 10.1016/j.ecoenv.2011.11.024. As to conditions: pH 2.0.
Regarding `COc1ccc(S)cc1OC`, the logD was 3.32.

In turn, `Cc1cccc(S)c1` came in with a logD of 3.13.

As for `Fc1ccccc1S`, the logD amounted to 1.9.

For `Fc1cccc(S)c1`, the logD was 2.12.

Turning to `Sc1ccccc1Cl`, the logD worked out at 2.27.

As to `Cc1ccc(C)c(S)c1`, the logD was found to be 3.92.

In the case of `Sc1cccc(Br)c1`, the logD was determined as 2.48.

Consider `Cc1cccc(C)c1S`, for which the logD is 4.02.

`Sc1ccc(Cl)cc1` gave a logD of 2.66.

`Sc1cc(Cl)cc(Cl)c1` yielded a logD of 2.43.

On to `Cc1ccc(S)c(C)c1`, for which the logD is 3.77.

Take `Sc1ccc(Br)cc1`: the log distribution coefficient (logD) turned out to be 2.72.

Compound `Cc1ccccc1S` came in with a logD of 3.52.

`COc1cccc(S)c1`: the logD was 2.93.

Compound `Fc1cc(F)c(F)c(S)c1F` came in with a logD of 1.76.

For the compound `Sc1ccccc1Br`, the logD was determined as 2.44.

`Sc1c(Cl)cccc1Cl` gave a logD of 2.35. This logD and that of the compound before are within 0.2 log units of each other.

As for `Sc1cccc(Cl)c1`, the logD was found to be 2.47.

As to `Sc1cc(Cl)ccc1Cl`, the logD turned out to be 2.48.

The compound `Sc1cccc(Cl)c1Cl` came in with a logD of 2.44. The logD values of the last two compounds are within 0.2 log units of each other.

On to `Fc1ccc(S)cc1`, for which the logD came out at 2.92.

With `Cc1ccc(S)cc1`, the logD amounted to 3.27.

For `Sc1ccc(Cl)cc1Cl`, the logD is 2.49.

`Cc1ccc(S)cc1C` displayed a logD of 3.62.

In general, logD refers to the decadic logarithm of the distribution of all forms, ionised or not, between an organic phase and buffer at a given pH. Low readings indicate a more hydrophilic compound, high ones a more lipophilic compound.
